Reference: the supplement of paper PMC4858399

Key:
Conditions in all cases: exposure time 48 h
[1] = tested on: Caenorhabditis elegans N2; assay: lowest effective concentration for larval growth inhibition (size below effect threshold); higher = less potent
In short: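 Each well of a 96-well plate received 50 C. elegans N2 L1 larvae, which grew for 48 h at 20°C in K-medium containing killed bacteria, 1% DMSO and the chemical at 0.5, 1, 5, 10, 50, 100 or 200 µM. A Biosort recorded the extinction of every worm as its size, and these readings were log-transformed and averaged per well. The lowest effective concentration is defined as the first dose at which the plate-adjusted mean size falls below the threshold and stays below it at all higher doses; that threshold is 5.665.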

[2] = tested on: Caenorhabditis elegans N2; assay: AC50 for larval growth inhibition (Hill fit); higher = less potent
In short: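 Worms were synchronised C. elegans N2 L1 larvae, 50 per well of a 96-well plate, kept 48 h at 20°C in K-medium with killed OP50, 1% DMSO and 0.5–200 µM chemical. Size was taken as COPAS Biosort extinction, log-transformed and averaged per well, using only wells with at least 10 worms. AC50 was estimated by a constrained Hill fit with weighted genetic-algorithm regression; values outside the range are censored.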

[3] = tested on: Caenorhabditis elegans N2; assay: mean nematode size ln(EXT) after 48 h, plate-adjusted (DMSO control set to 6) (ln(EXT), control-adjusted); higher = larger nematodes / less growth inhibition
In short: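 Each treatment used 4–6 wells of 50 synchronised C. elegans N2 L1 larvae, kept for 48 h at 20°C in K-medium with killed OP50, 1% DMSO and 0.5–200 µM chemical. Debris was excluded by a growth model after the Biosort measured per-worm extinction. Mean size per well came from natural-logged values and was plate-adjusted. That adjustment subtracted the vehicle control mean and then added 6.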

| Structure (SMILES) | lowest effective concentration [1] [µM] | AC50 for larval growth inhibition [2] [µM] | mean nematode size ln(EXT) (ln) ([3]; 0.5 µM) | mean nematode size ln(EXT) (ln) ([3]; 1 µM) | mean nematode size ln(EXT) (ln) ([3]; 5 µM) | mean nematode size ln(EXT) (ln) ([3]; 10 µM) | mean nematode size ln(EXT) (ln) ([3]; 50 µM) | mean nematode size ln(EXT) (ln) ([3]; 100 µM) | mean nematode size ln(EXT) (ln) ([3]; 200 µM) |
| --- | --- | --- | --- | --- | --- | --- | --- | --- | --- |
| Cc1cc(N=Nc2ccccc2C)ccc1N [Fast Garnet GBC base] | 5 | 14.9 | 5.83 | 5.71 | 5.55 | 5.5 | 3.45 | 3.57 | 3.77 |
| CC(C)c1cccc(C(C)C)c1 [1,3-Diisopropylbenzene] | 200 | 175 | 6.02 | 5.98 | 5.99 | 6.07 | 6.21 | 6.12 | 5.46 |
| CC(C)(c1ccccc1)c1ccc(O)cc1 [4-Cumylphenol] | 100 | 110 | 6.04 | 5.96 | 5.97 | 5.84 | 5.92 | 5.3 | 4.34 |
| Oc1c(Cl)cc(Cl)cc1Cl [2,4,6-Trichlorophenol] | 200 | > 200 | 5.87 | 5.85 | 5.9 | 5.83 | 5.82 | 5.87 | 5.66 |
| CCCCOCN(C(=O)CCl)c1c(CC)cccc1CC [Butachlor] | 200 | 13.8 | 5.93 | 6.1 | 6.07 | 6.12 | 6.05 | 6.08 | 5.44 |
| CC(=O)OC/C=C(\C)CCC=C(C)C [Geranyl acetate] | 200 | > 200 | 5.79 | 5.76 | 5.73 | 5.81 | 5.7 | 5.74 | 5.61 |
| CCCCOC(=O)CCCCCCCCC(=O)OCCCC [Dibutyl sebacate] | 50 | 27 | 5.85 | 5.87 | 5.86 | 5.68 | 5.05 | 5.15 | 4.79 |
| NC(=O)N1C(=O)C(C(=O)c2cc(Cl)cs2)c2cc(F)c(Cl)cc21 (stereo not given) | ≤ 0.5 | 1.41 | 5.49 | 4.96 | 4.54 | 4.37 | 4.04 | 4.02 | – |
| CCN(CC)C(=O)C(C)Oc1cccc2ccccc12 (stereo not given) [Napropamide] | 100 | 97.3 | 5.97 | 5.95 | 5.93 | 6 | 6.01 | 5.62 | 5.43 |
| COCCOCCOCCOC [Triethylene glycol dimethyl ether] | 200 | > 200 | 5.75 | 6.01 | 5.91 | 5.91 | 5.72 | 5.81 | 5.64 |
| ClC1=C(Cl)C2(Cl)C3C4CC(C5OC45)C3C1(Cl)C2(Cl)Cl (stereo not given) [Endrin] | 5 | 8.83 | 5.93 | 5.85 | 4.99 | 4.95 | 3.81 | 3.9 | 3.75 |
| Oc1ccc2ccc3cccc4ccc1c2c34 [1-Hydroxypyrene] | 50 | 16 | 6 | 5.88 | 5.84 | 5.75 | 3.72 | 3.8 | 3.87 |
| COC(=O)N(C(=O)N1CO[C@@]2(C(=O)OC)Cc3cc(Cl)ccc3C2=N1)c1ccc(OC(F)(F)F)cc1 [Indoxacarb] | 5 | 6.41 | 6 | 5.91 | 5.25 | 4.02 | 3.6 | 3.56 | 3.48 |
| Cc1ccc(C)c(O)c1C [2,3,6-Trimethylphenol] | 200 | > 200 | 5.88 | 6.02 | 5.94 | 5.93 | 5.93 | 5.9 | 5.65 |
| O=C=NCCCCCCN=C=O [1,6-Diisocyanatohexane] | 200 | > 200 | 5.82 | 5.86 | 5.84 | 5.84 | 5.94 | 5.93 | 5.66 |
| CCCCCCCCCCCCOS(=O)(=O)[O-].[Na+] [Sodium dodecyl sulfate] | 10 | 24.5 | 5.87 | 5.81 | 5.75 | 5.47 | 4.99 | 4.66 | 4.69 |
| O=C(O)c1cccc(C(=O)O)c1 [Isophthalic acid] | 200 | > 200 | 5.93 | 5.83 | 5.85 | 5.87 | 5.8 | 5.82 | 4.8 |
| Nc1nc(N)c2nc(CNc3ccc(C(=O)NC(CCC(=O)O)C(=O)O)cc3)cnc2n1 (stereo not given) [Aminofolic acid, 4-] | 200 | > 200 | 5.89 | 5.91 | 5.86 | 5.86 | 5.82 | 5.82 | 5.39 |
| N#Cc1ccc(N(CC(N)=O)CC(F)(F)F)cc1C(F)(F)F | 200 | > 200 | 5.89 | 5.86 | 5.91 | 6 | 5.95 | 5.91 | 5.47 |
